Measurements as given in patent US20230122967A1, “NOVEL COMPOUNDS AS INHIBITORS OF PCSK9” (SHENGKE PHARMACEUTICALS (JIANGSU) LTD., priority 2020, published 2023).

Columns and labels:
Assay type in all cases: cell-based
[1] = system: PCSK9; assay: PCSK9 ELISA on HepG2 culture medium; conditions: HepG2 cells, 24 hr
Description: (§1) HepG2 cells (ATCC, Cat.: HB-8065) were maintained in Growth medium-Eagle's Minimum Essential Medium (Corning, 10-010-CVR), 10% FBS (Gibco, 10099-141), Penicillin (100 units/mL), Streptomycin ([…]). HepG2 cells were incubated at 37° C., 5% CO2. HepG2 cells were plated in flat bottom 96-well plates (Corning, 3599) at 40,000 cells/well in 100 μL of growth media. After an overnight incubation, the culture media were changed to serum-free OptiMEM media (Gibco, 31985-062), 90 μL/well. Vehicle, PF-06446846 hydrochloride, berberine, or test compound was added to the culture media, 10 μL/well. After 24 hr medium was harvested, and 10 μL of the medium were used for the PCSK9 ELISA (R&D Systems, SPC900).

[2] = system: PCSK9 mRNA; assay: RT-Q-PCR analysis of PCSK9 mRNA in HepG2 cells; conditions: Homo sapiens, 24 h, normalized to GAPDH, read-out: HepG2 Q-PCR PCSK9 mRNA level decrease (10 μM)
Description: HepG2 cells (ATCC, Cat.: HB-8065) were maintained in Growth medium-Eagle's Minimum Essential Medium (Corning, 10-010-CVR), 10% FBS (Gibco, 10099-141), Penicillin (100 units/mL), Streptomycin ([…]). HepG2 cells were incubated at 37° C., 5% CO2.
Cells were cultured in growth medium as described above and treated with the vehicle, Berberine or test compound for 24 h. The RNA was extracted using the Total RNA mini Kit (Tiangen, Beijing, China) according to the manufacturer's instructions. Reverse transcription was carried out using the High-Capacity cDNA reverse transcription kit (Thermo Fisher Scientific). Quantitative real-time PCR was performed using a reaction mixture containing cDNA, specific primers [PCSK9, 5′-[…]-3′ (forward) and 5′-[…]-3′ (reverse); GAPDH, 5′-[…]-3′ (forward) and 5′-[…]-3′ (reverse)] and Maxima SYBR Green/ROX qPCR Master Mix (Thermo Fisher Scientific). PCR amplification was carried out in a Real-Time PCR System. The real-time PCR conditions were 37° C. 10 min; 95° C. 10 min; 95° C. 15 s, 60° C. 30 s, 72° C. 30 s, 40 cycle. The amount of % RNA was normalized to the GAPDH level in the same samples.

[3] = system: HepG2 cells; assay: Measurement of Dil-LDL uptake in HepG2 cells; conditions: Homo sapiens, 24 h, 10 μM for 20 h, then 20 μg/mL Dil-LDL 4 h, read-out: LDL uptake 10 μM (fold of vehicle)
Description: HepG2 cells were maintained in MEM supplemented with 10% FBS. The cells were seeded in 96 well black plates at a density of 1×10^4 cells per well and grown to 70-80% confluence. Afterwards, cells were changed to serum-free Opti-MEM for 1 h and followed by incubation with 10 μM Berberine or compounds of the present disclosure for 20 h. Then, 20 μg/mL Dil-LDL was added and incubated at 37° C. in the dark for additional 4 h. Cells were extensively washed three times with PBS, and LDL uptake was determined on a fluorescence plate reader at an excitation wavelength of 520 nm and emission wavelength of 580 nm.

[4] = system: HepG2 cells; assay: Cell viability assay (HepG2 Survival assay, CellTiter-Glo); conditions: 24 hr, cellular ATP levels
Description: as §1, with “black clear” for “flat”, “3063)” for “3599)”, “cellular ATP levels” for “medium was harvested, and 10 μL of the medium”, “measured using CellTiter-Glo® 2.0 Assay (Promega, G9242).” for “used for the PCSK9 ELISA (R&D Systems, SPC900).”

SMILES | HepG2 PCSK9 ELISA (10 μM) % inhibition [1] | inhibition at 10 µM [2] | fold induction at 10 µM [3] | HepG2 Survival assay (10 μM) [4]
COc1ccc2cc3[n+](cc2c1OC)CCc1cc2c(cc1-3)OCO2 [Berberine, reference compound] | 52% | 35% | 2.54 | 
CN(C(=O)CN(CC(=O)Nc1ccc(Oc2ccc(F)cc2)cc1)C(=O)c1cc2cccc(F)c2[nH]1)C1Cc2ccccc2C1 [Compound 201-29] | 61% | 88.5% | 3.07 | 100%
CN(C(=O)CN(CC(=O)Nc1ccc(Oc2ccccc2)cc1)C(=O)c1cc2cccc(F)c2[nH]1)C1Cc2ccccc2C1 [Compound 201-31] | 48% | 73% | 2.07 | 100%
CN(C(=O)CN(CC(=O)Nc1ccc(Oc2ccc(F)cc2)cc1)C(=O)c1cc2cccc(F)c2[nH]1)C1CCCC1 [Compound 201-65] | 85% | 87% | 1.84 | 100%
CN(C(=O)CN(CC(=O)Nc1ccc(Oc2ccccc2)cc1)C(=O)c1cc2cccc(F)c2[nH]1)C1CCCC1 [Compound 201-70] | 76% | 85% | 1.69 | 100%
CN(Cc1ccccc1F)C(=O)CN(CC(=O)Nc1ccc(Oc2ccccc2)cc1)C(=O)c1cc2cccc(F)c2[nH]1 [Compound 201-74] | 77% | 88% | 3.92 | 96%
CN(C(=O)CN(CC(=O)Nc1ccc(Oc2ccc(F)c(F)c2)cc1)C(=O)c1cc2cccc(F)c2[nH]1)C1CCCC1 [Compound 201-75] | 80% | 90% | 2.92 | 100%
CN(C(=O)CN(CC(=O)Nc1ccc(Oc2ccc(F)c(F)c2)cc1)C(=O)c1cc2cccc(F)c2[nH]1)C1Cc2ccccc2C1 [Compound 201-80] | 80% | 88% | 3.07 | 100%
CN(C(=O)CN(CC(=O)Nc1ccc(Oc2ccc(F)cc2)cc1)C(=O)c1ccc(C(F)(F)F)o1)C1Cc2ccccc2C1 [Compound 201-104] | 83% | 86% | 4.15 | 100%
CN(Cc1ccccc1F)C(=O)CN(CC(=O)Nc1ccc(Oc2ccccc2)cc1)C(=O)c1ccc(C(F)(F)F)o1 [Compound 201-109] | 92% | 90% | 4.69 | 100%
CN(C(=O)CN(CC(=O)Nc1ccc(Oc2ccccc2)cc1)C(=O)c1ccc(C(F)(F)F)o1)C1Cc2ccccc2C1 [Compound 201-110] | 84% | 88% | 4.76 | 100%
CN(Cc1ccccc1F)C(=O)CN(CC(=O)Nc1ccc(Oc2ccc(F)c(F)c2)cc1)C(=O)c1ccc(C(F)(F)F)o1 [Compound 201-115] | 90% | 90% | 4.07 | 100%
CN(C(=O)CN(CC(=O)Nc1ccc(Oc2ccc(F)c(F)c2)cc1)C(=O)c1ccc(C(F)(F)F)o1)C1Cc2ccccc2C1 [Compound 201-116] | 81% | 88% | 3.76 | 100%
CN(C(=O)CN(CC(=O)Nc1ccc(Oc2ccc(F)c(F)c2)cc1)C(=O)c1ccco1)C1Cc2ccccc2C1 [Compound 201-134] | 90% | 92% | 5.3 | 100%
O=C(CN(CC(=O)Nc1ccc(Oc2ccc(C(F)(F)F)cc2)cc1)C(=O)c1cc2cccc(F)c2[nH]1)NCc1ccccc1 [Compound 201-205] | 85% | 92% | 1.1 | 90%
CC(C)c1ccc(Oc2ccc(NC(=O)CN(CC(=O)NC3CCCC3)C(=O)c3cc4cccc(F)c4[nH]3)cc2)cc1 [Compound 201-227] | 71% | 56% | 1.37 | 112%
CC(C)c1ccc(Oc2ccc(NC(=O)CN(CC(=O)NC3CCCC3)C(=O)c3ccc(C(F)(F)F)[nH]3)cc2)cc1 [Compound 201-235] | 73% | 72% |  | 101%
N#Cc1cccc2cc(C(=O)N(CC(=O)Nc3ccc(Oc4ccc(C(F)(F)F)cc4)cc3)CC(=O)NC3CCCC3)[nH]c12 [Compound 201-237] | 72% | 77% |  | 98%
CC(C)c1ccc(Oc2ccc(NC(=O)CN(CC(=O)NCc3ccccc3)C(=O)c3cc4cccc(F)c4[nH]3)cc2)cc1 [Compound 201-242] | 74% | 77% | 2.43 | 115%
CC(C)c1ccc(Oc2ccc(NC(=O)CN(CC(=O)NCc3ccccc3)C(=O)c3ccc(C(F)(F)F)o3)cc2)cc1 [Compound 201-245] | 76% |  | 1.11 | 101%
O=C(CN(CC(=O)Nc1ccc(Oc2ccc(C(F)(F)F)cc2)cc1)C(=O)c1cc2cccc(F)c2[nH]1)Nc1ccccc1 [Compound 201-255] | 87% | 72% |  | 101%
O=C(CN(CC(=O)Nc1ccc(Oc2ccc(F)c(F)c2)cc1)C(=O)c1cc2cccc(F)c2[nH]1)Nc1ccccc1 [Compound 201-274] | 77% | 88% |  | 98%
